Assay: xn = mol fraction of the nth substance listed
Details: 101 kPa, Liquid; for viscosity: Capillary tube (Ostwald / Ubbelohde) method; for mass density: Vibrating tube method

CCCCCCCC [octane] + CCCCO
Details	mass density [kg/m3]	viscosity [mPa·s]
293.15 K, x1 = 0.0967	792	2.243
293.15 K, x1 = 0.1999	775.92	1.722
293.15 K, x1 = 0.3022	761.86	1.363
293.15 K, x1 = 0.4064	749.45	1.078
293.15 K, x1 = 0.4995	739.67	0.903
293.15 K, x1 = 0.6004	730.23	0.766
293.15 K, x1 = 0.7002	721.95	0.672
293.15 K, x1 = 0.7999	714.61	0.603
293.15 K, x1 = 0.8991	708.11	0.571
293.15 K, x1 = 1	702.54	0.545
298.15 K, x1 = 0.0967	788.1	1.983
298.15 K, x1 = 0.1999	771.93	1.537
298.15 K, x1 = 0.3022	757.83	1.223
298.15 K, x1 = 0.4064	745.37	0.974
298.15 K, x1 = 0.4995	735.56	0.826
298.15 K, x1 = 0.6004	726.12	0.709
298.15 K, x1 = 0.7002	717.8	0.626
298.15 K, x1 = 0.7999	710.5	0.565
298.15 K, x1 = 0.8991	704	0.537
298.15 K, x1 = 1	698.49	0.513
303.15 K, x1 = 0.0967	784.17	1.762
303.15 K, x1 = 0.1999	767.92	1.375
303.15 K, x1 = 0.3022	753.77	1.102
303.15 K, x1 = 0.4064	741.27	0.885
303.15 K, x1 = 0.4995	731.43	0.758
303.15 K, x1 = 0.6004	721.97	0.655
303.15 K, x1 = 0.7002	713.65	0.584
303.15 K, x1 = 0.7999	706.35	0.529
303.15 K, x1 = 0.8991	699.87	0.503
303.15 K, x1 = 1	694.44	0.485
308.15 K, x1 = 0.0967	780.22	1.577
308.15 K, x1 = 0.1999	763.9	1.232
308.15 K, x1 = 0.3022	749.68	0.996
308.15 K, x1 = 0.4064	737.13	0.809
308.15 K, x1 = 0.4995	727.27	0.698
308.15 K, x1 = 0.6004	717.79	0.609
308.15 K, x1 = 0.7002	709.47	0.546
308.15 K, x1 = 0.7999	702.18	0.497
308.15 K, x1 = 0.8991	695.72	0.473
308.15 K, x1 = 1	690.37	0.459
313.15 K, x1 = 0.0967	776.24	1.4
313.15 K, x1 = 0.1999	759.83	1.11
313.15 K, x1 = 0.3022	745.56	0.904
313.15 K, x1 = 0.4064	732.96	0.74
313.15 K, x1 = 0.4995	723.07	0.644
313.15 K, x1 = 0.6004	713.59	0.566
313.15 K, x1 = 0.7002	705.27	0.511
313.15 K, x1 = 0.7999	697.97	0.467
313.15 K, x1 = 0.8991	691.54	0.447
313.15 K, x1 = 1	686.29	0.433
318.15 K, x1 = 0.0967	772.22	1.258
318.15 K, x1 = 0.1999	755.73	1
318.15 K, x1 = 0.3022	741.39	0.821
318.15 K, x1 = 0.4064	728.75	0.679
318.15 K, x1 = 0.4995	718.84	0.595
318.15 K, x1 = 0.6004	709.35	0.527
318.15 K, x1 = 0.7002	701.03	0.479
318.15 K, x1 = 0.7999	693.72	0.44
318.15 K, x1 = 0.8991	687.33	0.42
318.15 K, x1 = 1	682.19	0.412
323.15 K, x1 = 0.0967	768.16	1.134
323.15 K, x1 = 0.1999	751.58	0.907
323.15 K, x1 = 0.3022	737.18	0.751
323.15 K, x1 = 0.4064	724.5	0.625
323.15 K, x1 = 0.4995	714.57	0.552
323.15 K, x1 = 0.6004	705.07	0.493
323.15 K, x1 = 0.7002	696.75	0.45
323.15 K, x1 = 0.7999	689.48	0.415
323.15 K, x1 = 0.8991	683.1	0.397
323.15 K, x1 = 1	678.08	0.392

CCCCCO [pentan-1-ol] + CCCCCCCC
Details	mass density [kg/m3]	viscosity [mPa·s]
293.15 K, x2 = 0	814.59	4.042
293.15 K, x2 = 0.1004	798.43	2.938
293.15 K, x2 = 0.201	783.65	2.237
293.15 K, x2 = 0.3001	770.3	1.695
293.15 K, x2 = 0.4	757.91	1.311
293.15 K, x2 = 0.4984	746.71	1.046
293.15 K, x2 = 0.5967	736.39	0.863
293.15 K, x2 = 0.6976	726.7	0.737
293.15 K, x2 = 0.7983	717.79	0.652
293.15 K, x2 = 0.8998	709.68	0.588
298.15 K, x2 = 0	810.93	3.518
298.15 K, x2 = 0.1004	794.68	2.568
298.15 K, x2 = 0.201	779.81	1.972
298.15 K, x2 = 0.3001	766.39	1.509
298.15 K, x2 = 0.4	753.94	1.18
298.15 K, x2 = 0.4984	742.7	0.953
298.15 K, x2 = 0.5967	732.34	0.796
298.15 K, x2 = 0.6976	722.64	0.685
298.15 K, x2 = 0.7983	713.72	0.605
298.15 K, x2 = 0.8998	705.59	0.55
303.15 K, x2 = 0	807.24	3.06
303.15 K, x2 = 0.1004	790.89	2.254
303.15 K, x2 = 0.201	775.94	1.747
303.15 K, x2 = 0.3001	762.45	1.349
303.15 K, x2 = 0.4	749.95	1.068
303.15 K, x2 = 0.4984	738.67	0.873
303.15 K, x2 = 0.5967	728.27	0.736
303.15 K, x2 = 0.6976	718.55	0.638
303.15 K, x2 = 0.7983	709.62	0.567
303.15 K, x2 = 0.8998	701.48	0.516
308.15 K, x2 = 0	803.53	2.659
308.15 K, x2 = 0.1004	787.09	1.984
308.15 K, x2 = 0.201	772.05	1.564
308.15 K, x2 = 0.3001	758.49	1.219
308.15 K, x2 = 0.4	745.93	0.971
308.15 K, x2 = 0.4984	734.6	0.802
308.15 K, x2 = 0.5967	724.18	0.682
308.15 K, x2 = 0.6976	714.44	0.596
308.15 K, x2 = 0.7983	705.49	0.532
308.15 K, x2 = 0.8998	697.35	0.486
313.15 K, x2 = 0	799.79	2.334
313.15 K, x2 = 0.1004	783.26	1.755
313.15 K, x2 = 0.201	768.13	1.393
313.15 K, x2 = 0.3001	754.5	1.11
313.15 K, x2 = 0.4	741.88	0.882
313.15 K, x2 = 0.4984	730.52	0.738
313.15 K, x2 = 0.5967	720.07	0.636
313.15 K, x2 = 0.6976	710.3	0.557
313.15 K, x2 = 0.7983	701.34	0.499
313.15 K, x2 = 0.8998	693.2	0.457
318.15 K, x2 = 0	796.03	2.042
318.15 K, x2 = 0.1004	779.4	1.557
318.15 K, x2 = 0.201	764.17	1.249
318.15 K, x2 = 0.3001	750.47	1.01
318.15 K, x2 = 0.4	737.81	0.807
318.15 K, x2 = 0.4984	726.4	0.681
318.15 K, x2 = 0.5967	715.92	0.589
318.15 K, x2 = 0.6976	706.14	0.521
318.15 K, x2 = 0.7983	697.16	0.47
318.15 K, x2 = 0.8998	689.02	0.431
323.15 K, x2 = 0	792.23	1.805
323.15 K, x2 = 0.1004	775.5	1.389
323.15 K, x2 = 0.201	760.18	1.117
323.15 K, x2 = 0.3001	746.41	0.911
323.15 K, x2 = 0.4	733.69	0.74
323.15 K, x2 = 0.4984	722.24	0.63
323.15 K, x2 = 0.5967	711.74	0.549
323.15 K, x2 = 0.6976	701.94	0.488
323.15 K, x2 = 0.7983	692.95	0.442
323.15 K, x2 = 0.8998	684.81	0.406
